Results taken from ChEMBL document CHEMBL4706644, “Structure-Activity Relationship Studies of Pyrimidine-4-Carboxamides as Inhibitors of N-Acylphosphatidylethanolamine Phospholipase D” (J Med Chem, 2021).

target: T1, N-acyl-phosphatidylethanolamine-hydrolyzing phospholipase D (Homo sapiens, UniProt Q6IQ20); test: Inhibition of full length human NAPE-PLD expressed in HEK293T cell lysate using PED6 as substrate preincubated for 30 mins followed by substrate addition and measured at 2 mins interval for 1 hr by tecan-plate reader analysis; format: subcellular
T1 sequence (Q6IQ20 whole entry): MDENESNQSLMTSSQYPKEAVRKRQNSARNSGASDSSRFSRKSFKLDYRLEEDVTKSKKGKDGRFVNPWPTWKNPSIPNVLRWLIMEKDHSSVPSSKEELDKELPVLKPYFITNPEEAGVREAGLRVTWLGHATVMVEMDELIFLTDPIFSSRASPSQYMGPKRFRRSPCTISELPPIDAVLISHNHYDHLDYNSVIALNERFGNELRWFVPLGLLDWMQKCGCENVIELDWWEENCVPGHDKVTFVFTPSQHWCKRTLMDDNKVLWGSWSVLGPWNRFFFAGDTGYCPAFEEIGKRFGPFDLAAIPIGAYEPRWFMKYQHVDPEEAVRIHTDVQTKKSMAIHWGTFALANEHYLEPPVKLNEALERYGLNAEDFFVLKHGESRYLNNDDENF

Row | IC50 | SMILES
1 | > 50.1 µM | CN(CCc1ccccc1)c1nc(C(=O)O)cc(N2CCOCC2)n1
2 | 1.12 µM | O=C(NCC1CC1)c1cc(N2CCOCC2)nc(N(CCc2ccccc2)c2ccccc2)n1
3 | > 50.1 µM | CN(CC1CC1)C(=O)c1cc(N2CCOCC2)nc(N(C)CCc2ccccc2)n1
4 | 40.7 µM | CN(CCc1ccccc1)c1nc(-c2ncc(C3CC3)[nH]2)cc(N2CCOCC2)n1
5 | 17.8 µM | CN(CCc1ccccc1)c1nc(C(N)=O)cc(N2CCOCC2)n1
6 | 0.813 µM | CN(CCc1ccccc1)c1nc(C(=O)NCC2CC2)cc(N2CCOCC2)n1
7 | 25.1 µM | O=C(NCC1CC1)c1cc(N2CCOCC2)nc(N2CCCCC2CC2CCCCC2)n1 (racemic)
8 | 32.4 µM | CN(CCc1ccccc1)c1nc(C(=O)NCc2nccs2)cc(N2CCOCC2)n1
9 | 21.4 µM | CN(CCc1ccccc1)c1nc(C(=O)NCC(C)(C)C)cc(N2CCOCC2)n1
10 | 22.9 µM | O=C(NCC1CC1)c1cc(N2CCOCC2)nc(NCc2ccccc2)n1
11 | > 50.1 µM | CN(CCc1ccccc1)c1nc(C(=O)NCC2CC2)nc(N2CCOCC2)n1
12 | 23.4 µM | CN(CCc1ccccc1)c1nc(C(=O)NCc2ccccc2)cc(N2CCOCC2)n1
13 | 30.9 µM | CN(CCc1ccccc1)c1nc(C(=O)NCC#N)cc(N2CCOCC2)n1
14 | > 50.1 µM | CN(CCc1ccccc1)c1nc(C(=O)NCC(=O)O)cc(N2CCOCC2)n1
15 | > 50.1 µM | CN(CCc1ccccc1)c1nc(C(=O)NCc2ccc(-c3ccccc3)cc2)cc(N2CCOCC2)n1
16 | 34.7 µM | CCCCCCNC(=O)c1cc(N2CCOCC2)nc(N(C)CCc2ccccc2)n1
17 | 11 µM | COCCNC(=O)c1cc(N2CCOCC2)nc(N(C)CCc2ccccc2)n1
18 | > 50.1 µM | O=C(NCC1CC1)c1cc(N2CCOCC2)ncn1
19 | 12.9 µM | CN(CCc1ccccc1)c1nc(C(=O)NCC2CC2)cc(N2CCN(C(=O)OCc3ccccc3)CC2)n1
20 | 0.741 µM | O=C(NCC1CC1)c1cc(N2CCOCC2)nc(N(CCc2ccccc2)Cc2ccccc2)n1
21 | > 50.1 µM | CN(CCc1ccccc1)c1nc(C(=O)NCC2CC2)cc(N2CCS(=O)(=O)CC2)n1
22 | 7.59 µM | CN(CCc1ccccc1)c1nc(NC(=O)CC2CC2)cc(N2CCOCC2)n1
23 | 17.4 µM | O=C(NCC1CC1)c1cc(N2CCS(=O)(=O)CC2)nc(N2CCC[C@@H](c3ccccc3)C2)n1
24 | 33.1 µM | CN(CCc1ccccc1)c1nc(C(=O)NCC(F)(F)F)cc(N2CCOCC2)n1
25 | 17 µM | CNC(=O)CNC(=O)c1cc(N2CCOCC2)nc(N(C)CCc2ccccc2)n1
26 | > 50.1 µM | O=C(NCC1CC1)c1cc(N2CCOCC2)nc(Cl)n1
27 | 13.5 µM | CNC(=O)c1cc(N2CCOCC2)nc(N(C)CCc2ccccc2)n1

target: T2, N-acyl-phosphatidylethanolamine-hydrolyzing phospholipase D (Mus musculus, UniProt Q8BH82); test: Inhibition of full length mouse NAPE-PLD expressed in HEK293T cell lysate using PED6 as substrate preincubated for 30 mins followed by substrate addition and measured at 2 mins interval for 1 hr by tecan-plate reader analysis; format: subcellular
T2 sequence (Q8BH82 whole entry): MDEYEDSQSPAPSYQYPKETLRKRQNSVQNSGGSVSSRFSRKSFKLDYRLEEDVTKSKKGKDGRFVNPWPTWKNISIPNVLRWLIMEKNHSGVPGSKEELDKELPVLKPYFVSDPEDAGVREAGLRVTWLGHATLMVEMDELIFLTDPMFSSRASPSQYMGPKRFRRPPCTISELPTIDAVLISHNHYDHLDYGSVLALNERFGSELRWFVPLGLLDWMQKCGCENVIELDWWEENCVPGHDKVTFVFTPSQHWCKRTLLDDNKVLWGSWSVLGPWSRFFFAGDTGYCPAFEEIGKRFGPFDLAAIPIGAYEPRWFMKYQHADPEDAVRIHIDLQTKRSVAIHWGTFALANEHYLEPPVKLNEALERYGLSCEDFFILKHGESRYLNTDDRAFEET

Row | IC50 | SMILES
28 | 1.26 µM | O=C(NCC1CC1)c1cc(N2CC[C@@H](O)C2)nc(N2CCC[C@H](c3ccccc3)C2)n1
29 | 3.31 µM | CN(CCc1ccccc1)c1nc(C(=O)NCC2CC2)cc(N2CCOCC2)n1
30 | 0.38 µM | O=C(NCC1CC1)c1cc(N2CC[C@@H](O)C2)nc(N2CCC[C@@H](c3ccccc3)C2)n1
31 | 0.575 µM | O=C(NCC1CC1)c1cc(N2CCOCC2)nc(N2CCC[C@@H](c3ccccc3)C2)n1
32 | 1.82 µM | O=C(NCC1CC1)c1cc(N2CC[C@H](O)C2)nc(N2CCC[C@H](c3ccccc3)C2)n1
33 | 0.447 µM | O=C(NCC1CC1)c1cc(N2CC[C@H](O)C2)nc(N2CCC[C@@H](c3ccccc3)C2)n1
34 | 9.55 µM | O=C(NCC1CC1)c1cc(N2CCS(=O)(=O)CC2)nc(N2CCC[C@@H](c3ccccc3)C2)n1
35 | 0.389 µM | CN(C)c1cc(C(=O)NCC2CC2)nc(N2CCC[C@@H](c3ccccc3)C2)n1

target: T1, N-acyl-phosphatidylethanolamine-hydrolyzing phospholipase D; test: Inhibition of full length human NAPE-PLD expressed in HEK293 cells using radiolabelled diether-NAPE as substrate incubated for 20 mins by liquid scintillation counter analysis

Row | IC50 | SMILES
36 | 10 µM | CCCCCCCCCCCCCC(=O)NCCNP(=O)(O)OCC(COC(=O)CCCCC)OC(=O)CCCCC (stereo unspecified)
